Data published in PubChem BioAssay (NCI).
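Cultured in 96-well plates, cells were exposed to test compound for 48 hours across five concentrations. GI50 is the concentration that inhibits growth by half. TGI denotes the concentration required for complete inhibition of growth.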

Legend:
Test in all cases: inhibition of tumour cell growth, NCI panel, 48 h; in the data active = GI50 below about 0.43 µM; inactive = the rest
OVCAR-3 ovarian = system: OVCAR-3 ovarian
UACC-62 melanoma = system: UACC-62 melanoma
OVCAR-8 ovarian = system: OVCAR-8 ovarian
TK-10 renal = system: TK-10 renal
PC-3 prostate = system: PC-3 prostate
A549 NSCLC = system: A549 NSCLC
SF-268 CNS = system: SF-268 CNS
HOP-92 NSCLC = system: HOP-92 NSCLC
SNB-19 CNS = system: SNB-19 CNS
BT-549 breast = system: BT-549 breast
UACC-257 melanoma = system: UACC-257 melanoma
SK-MEL-5 melanoma = system: SK-MEL-5 melanoma
HT29 colon = system: HT29 colon
SK-MEL-2 melanoma = system: SK-MEL-2 melanoma
SW-620 colon = system: SW-620 colon
COLO 205 colon = system: COLO 205 colon
MDA-MB-231 breast = system: MDA-MB-231 breast
SN12C renal = system: SN12C renal
SK-OV-3 ovarian = system: SK-OV-3 ovarian
M14 melanoma = system: M14 melanoma
RPMI-8226 leukemia = system: RPMI-8226 leukemia
HOP-62 NSCLC = system: HOP-62 NSCLC
U251 CNS = system: U251 CNS
IGROV1 ovarian = system: IGROV1 ovarian
MALME-3M melanoma = system: MALME-3M melanoma
SF-295 CNS = system: SF-295 CNS
ACHN renal = system: ACHN renal
RXF 393 renal = system: RXF 393 renal
CAKI-1 renal = system: CAKI-1 renal

Cn1c(=O)c(Oc2ccc(F)cc2F)cc2cnc(NC(C)(C)CO)nc21
inactive: GI50 (UACC-62 melanoma) > 25 µM | GI50 (OVCAR-8 ovarian) > 25 µM | GI50 (TK-10 renal) > 25 µM | GI50 (PC-3 prostate) > 25 µM | GI50 (A549 NSCLC) > 25 µM | GI50 (SF-268 CNS) > 25 µM | GI50 (HOP-92 NSCLC) 7.44 µM | GI50 (SNB-19 CNS) > 25 µM | GI50 (BT-549 breast) > 21.4 µM | GI50 (UACC-257 melanoma) > 25 µM | GI50 (SK-MEL-5 melanoma) > 25 µM | GI50 (HT29 colon) > 25 µM | GI50 (SK-MEL-2 melanoma) > 25 µM | GI50 (SW-620 colon) > 25 µM | GI50 (COLO 205 colon) > 25 µM | GI50 (MDA-MB-231 breast) > 25 µM | GI50 (SN12C renal) > 25 µM | GI50 (SK-OV-3 ovarian) > 25 µM | GI50 (M14 melanoma) > 25 µM | GI50 (RPMI-8226 leukemia) > 25 µM | GI50 (HOP-62 NSCLC) > 25 µM | GI50 (U251 CNS) > 25 µM | GI50 (IGROV1 ovarian) > 25 µM | GI50 (MALME-3M melanoma) > 25 µM | GI50 (SF-295 CNS) > 25 µM | GI50 (ACHN renal) > 25 µM | GI50 (RXF 393 renal) > 25 µM | GI50 (CAKI-1 renal) > 25 µM
> 25 µM: TGI (OVCAR-3 ovarian) | TGI (UACC-62 melanoma) | TGI (OVCAR-8 ovarian) | TGI (TK-10 renal) | TGI (PC-3 prostate) | TGI (A549 NSCLC) | TGI (SF-268 CNS) | TGI (HOP-92 NSCLC) | TGI (SNB-19 CNS) | TGI (BT-549 breast) | TGI (UACC-257 melanoma) | TGI (SK-MEL-5 melanoma) | TGI (HT29 colon) | TGI (SK-MEL-2 melanoma) | TGI (SW-620 colon) | TGI (COLO 205 colon) | TGI (MDA-MB-231 breast) | TGI (SN12C renal) | TGI (SK-OV-3 ovarian) | TGI (M14 melanoma) | TGI (RPMI-8226 leukemia) | TGI (HOP-62 NSCLC) | TGI (U251 CNS) | TGI (IGROV1 ovarian) | TGI (MALME-3M melanoma) | TGI (SF-295 CNS) | TGI (ACHN renal) | TGI (RXF 393 renal) | TGI (CAKI-1 renal)
